Laboratory results taken from paper PMC3793924, “Targeting Androgen Receptor/Src Complex Impairs the Aggressive Phenotype of Human Fibrosarcoma Cells” (PLoS ONE, 2013).

How the values were obtained:
[1] = tested on: HT1080 cells; conditions: various cell types, including HT1080 cells (Figure S1); cited from earlier work
From the text: Such a crosstalk has been previously analyzed in prostate cancer-derived LNCaP cells. […] The S1 peptide derives from the 377-386 amino-acid sequence of AR that is rich in prolines and is responsible for association of AR with t ...

[2] = tested on: HT1080 cells; assay: Trans-well migration/invasiveness of HT1080 cells; format: cell-based, human; conditions: quiescent HT1080 cells, collagen-coated Trans-well, 6 h, EGF 100 ng/ml; Casodex 10 μM; S1 and Ss peptides 10 nM
[3] = tested on: KP-2 cells; assay: BrdU incorporation in KP-2 cells; format: cell-based, human; conditions: quiescent KP-2 cells, EGF 100 ng/ml, 18 h; for Inhibition of EGF-induced BrdU incorporation: Casodex 10 μM, S1 and Ss peptides 10 nM
Protocol: Quiescent human colon cancer-derived HCT116 cells were used. In A, cells on coverslips were left un-stimulated or stimulated for 18 h with the indicated compounds. […] After in vivo pulse with BrdU (100 μM), BrdU incorporation was analyzed by IF and expressed as % of total cells. Several independent experiments were performed in duplicate and the results were derived from at least 400 scored cells for each coverslip. Mean and SEM are shown. n represents the number of experiments. In B, the cells were left untreated or treated for 6 h with the indicated compounds. […] Cells were allowed to migrate in collagen-pre-coated Trans-well filters. Migrated cells were stained and counted as reported in Methods. Results were derived from several independent experiments, each performed in duplicate. Data are expressed as relative increase. Mean and SEM are shown. n represents the number of experiments. Quiescent human pancreatic cancer-derived KP-2 cells were used. In C, cells on coverslips were left unstimulated or stimulated for 18 h with the indicated compounds. […] After in vivo pulse with BrdU (100 μM), BrdU incorporation was analyzed by IF and expressed as % of total cells. Several independent experiments were performed in duplicate and the results were derived from at least 400 scored cells for each coverslip. Mean and SEM are shown. n represents the number of experiments. In D, the cells were left untreated or treated for 6 h with the indicated compounds. […] Cells were allowed to migrate in collagen-pre-coated Trans-well filters. Migrated cells were stained and counted as reported in Methods. Results were derived from several independent experiments, each performed in duplicate. Data are expressed as relative increase. Mean and SEM are shown. n represents the number of experiments. […] After in vivo labeling with 100 μM BrdU (Sigma), DNA synthesis was analyzed by immunofluorescence, using diluted (1:50 in PBS) mouse monoclonal anti-BrdU antibody (clone BU-1, from GE Healthcare).

[4] = tested on: MCF-7 cells; assay: BrdU incorporation in MCF-7 cells; format: cell-based, human; conditions: quiescent MCF-7 cells, EGF 100 ng/ml, 18 h; for Inhibition of EGF-induced BrdU incorporation: Casodex 10 μM, S1 and Ss peptides 1nM
Protocol: (§1) Quiescent human prostate cancer-derived LNCaP cells were used. In A, quiescent cells on coverslips were left unstimulated or stimulated for 18 h with the indicated compounds. […] After in vivo pulse with BrdU (100 μM), BrdU incorporation was analyzed by IF and expressed as % of total cells. Several independent experiments were performed in duplicate and the results were derived from at least 600 scored cells for each coverslip. Mean and SEM are shown. n represents the number of experiments. In B, the cells were left untreated or treated for 6 h with the indicated compounds. […] Cells were allowed to migrate in collagen pre-coated Trans-well filters. Migrated cells were stained and counted as reported in Methods. Results were derived from several independent experiments, each performed in duplicate. Data are expressed as relative increase. Mean and SEM are shown. n represents the number of experiments. Quiescent human breast cancer-derived MCF-7 cells were used. In C, quiescent cells on coverslips were left un-stimulated or stimulated for 18 h with the indicated compounds. […] After in vivo pulse with BrdU (100 μM), BrdU incorporation was analyzed by IF and expressed as % of total cells. Several independent experiments were performed in duplicate and the results were derived from at least 500 scored cells for each coverslip. Mean and SEM are shown. n represents the number of experiments. In D, the cells were left untreated or treated for 6 h with the indicated compounds. […] Cells were allowed to migrate in collagen-pre-coated Trans-well filters. Migrated cells were stained and counted as reported in Methods. Results were derived from several independent experiments, each performed in duplicate. Data are expressed as relative increase. Mean and SEM are shown. n represents the number of experiments.

[5] = tested on: NIH3T3 cells; assay: Trans-well migration of NIH3T3 fibroblasts; format: cell-based, mouse; conditions: 6 h, EGF 100 ng/ml; for Inhibition of EGF-induced motility (Trans-well): quiescent NIH3T3 fibroblasts, Casodex 10 µM, S1 and Ss peptides 10 nM
Protocol: NIH3T3 cells were used. In A, cells were transfected with 3416 or 3424 ARE-Luc constructs with or without hAR-expressing plasmid and then made quiescent as reported in Methods. Cells were left unstimulated or stimulated for 18 h with 10 nM R1881. Luciferase activity was assayed, normalized using beta-gal as an internal control, and expressed as fold induction. Three independent experiments were performed in triplicate. Means and SEM are shown; n represents the number of experiments. […] After in vivo labeling with BrdU (100 μM), BrdU incorporation was analyzed by IF and expressed as % of total cells. Several independent experiments were performed in duplicate and data derived from at least 700 scored cells for each coverslip. Mean and SEM are shown. n represents the number of experiments. […] Quiescent NIH3T3 fibroblasts were used. In C, cells on coverslips were left unstimulated or stimulated for 18 h with the indicated compounds. […] After in vivo pulse with BrdU (100 μM), BrdU incorporation was analyzed by IF and expressed as % of total cells. Several independent experiments were performed in duplicate and the results were derived from at least 500 scored cells for each coverslip. Mean and SEM are shown. n represents the number of experiments. […] The Western blot of MCF-7 cell lysate with the anti-tubulin or the anti-EGFR antibody is shown for comparison. In D, cells were left untreated or treated for 6 h with the indicated compounds. […] Cells were allowed to migrate in collagen pre-coated Trans-well filters. Migrated cells were stained and counted as reported in Methods.

[6] = tested on: LNCaP cells; assay: BrdU incorporation in LNCaP cells; format: cell-based, human; conditions: quiescent LNCaP cells, EGF 100 ng/ml, 18 h; for Inhibition of EGF-induced BrdU incorporation: Casodex 10 μM, S1 and Ss peptides 10 nM
Protocol: as §1

[7] = tested on: MMP-9; assay: Protease activity of MMP-9 released from HT1080 cells; format: cell-based, human; conditions: quiescent HT1080 cells; for Inhibition of EGF-stimulated MMP-9 secretion (protease activity): EGF 100 ng/ml 5 min, Casodex 10 μM, S1 and Ss peptides 10 nM added 30 min before EGF
[8] = tested on: HCT116 cells; assay: Trans-well migration of HCT116 cells; format: cell-based, human; conditions: quiescent HCT116 cells, 6 h, EGF 100 ng/ml; for Inhibition of EGF-induced motility (Trans-well): Casodex 10 μM, S1 and Ss peptides 10 nM

| Compound | Diffusion across membranes [1] | Inhibition of EGF-induced invasiveness (trans-migration) [2] | Inhibition of EGF-induced BrdU incorporation [3] | Inhibition of EGF-induced BrdU incorporation [4] | Inhibition of EGF-induced motility (Trans-well) [5] | Inhibition of EGF-induced BrdU incorporation [6] | Inhibition of EGF-stimulated MMP-9 secretion (protease activity) [7] | Inhibition of EGF-induced motility (Trans-well) [8] | BrdU incorporation upon stimulation [3] | BrdU incorporation upon stimulation [4] | Motility upon stimulation ([5]; quiescent NIH3T3 cells) | BrdU incorporation upon stimulation [6] | Increase of protease activity of MMP-9 released ([7]; EGF 100 ng/ml, 5 min) | Motility upon stimulation [8] |
| --- | --- | --- | --- | --- | --- | --- | --- | --- | --- | --- | --- | --- | --- | --- |
| Ac-PPPHPHARIK-NH2 [S1 peptide] | rapidly diffuses across membranes | inhibited to a similar extent | inhibit both DNA synthesis and motility | abolishes the mitogenic response elicited by EGF | significantly inhibit both the responses | abolishes the mitogenic response elicited by EGF | inhibits the EGF effect on MMP-9 secretion | similarly inhibit these EGF-elicited responses | – | – | – | – | – | – |
| EGF: epidermal growth factor (Roche), used as stimulus at 100 ng/ml | – | – | – | – | – | – | – | – | significantly increases BrdU incorporation | robustly incorporate BrdU | significantly increases | robustly incorporate BrdU | about 2 fold | robustly increases |
| CC(O)(CS(=O)(=O)c1ccc(F)cc1)C(=O)Nc1ccc(C#N)c(C(F)(F)F)c1 (stereo not shown) [Casodex] | – | inhibited to a similar extent | inhibit both DNA synthesis and motility | inhibits EGF-induced BrdU incorporation | significantly inhibit both the responses | inhibits EGF-induced BrdU incorporation | inhibits this response | similarly inhibit these EGF-elicited responses | – | – | – | – | – | – |
| Ac-HPKPARIPHP-NH2 [Ss peptide] | – | not by Ss peptide | does not interfere with the EGF-elicited responses | only slightly affects DNA synthesis | slightly modifies | only slightly affects DNA synthesis | negligible inhibitory effect | does not interfere with the EGF-elicited responses | – | – | – | – | – | – |
